Experimental data taken from patent publication US8927587B2, “Chemical compounds” (Pfizer Limited, priority 2012, dated 2015).

Biological target: T1, hNav1.8 (Homo sapiens, UniProt Q9Y5Y9)
T1 construct: host or cells: HEK cells, stably transfected
Assay: hNav1.8 whole-cell patch-clamp electrophysiology (conventional or PatchXpress 7000) in stably transfected HEK cells
Type: cell-based
Conditions: estimated IC50 calculated from single point % inhibition; HEK cells expressing hNav1.8; 8 sec prepulse to V1/2, 20 msec step to 0 mV; average of replicates; read-out: Nav1.8 EIC50
Excerpt: The ability of the benzimidazole derivatives of the formula (I) to inhibit the Nav1.8 channel may be measured using the assay described below.
HEK cells stably transfected with hNav1.8, purchased from Millipore (Millipore Corp., Billerica, Mass. 01821), were maintained according to manufacturer's instructions. For electrophysiological studies, cells were removed from the culture flask by brief trypsinization and re-plated at low density onto glass cover slips. Cells were typically used for electrophysiological experiments within 24 to 72 h after plating.
Cover slips containing HEK cells expressing hNav1.8 were placed in a bath on the stage of an inverted microscope and perfused (approximately 1 ml/min) with extracellular solution of the following composition: 138 mM NaCl, 2 mM CaCl2, 5.4 mM KCl, 1 mM MgCl2, 10 mM glucose, and 10 mM HEPES, pH 7.4, with NaOH. […] The osmolarity of the extracellular and intracellular solutions was 300 mOsm/kg and 295 mOsm/kg, respectively. All recordings were made at room temperature (22-24° C.) using AXOPATCH 200B amplifiers and PCLAMP software (Axon Instruments, Burlingame, Calif.).
hNav1.8 currents in HEK cells were measured using the whole-cell configuration of the patch-clamp technique (Hamill et al., 1981). Uncompensated series resistance was typically 2 to 5 mega ohms and >85% series resistance compensation was routinely achieved. As a result, voltage errors were negligible and no correction was applied. Current records were acquired at 20 to 50 KHz and filtered at 5 to 10 KHz.
HEK cells stably transfected with hNav1.8 were viewed under Hoffman contrast optics and placed in front of an array of flow pipes emitting either control or compound-containing extracellular solutions. All compounds were dissolved in dimethyl sulfoxide to make 10 mM stock solutions, which were then diluted into extracellular solution to attain the final concentrations desired.
The voltage-dependence of inactivation was determined by applying a series of depolarizing prepulses (8 sec long in 10 mV increments) from a negative holding potential. The voltage was then immediately stepped to 0 mV to assess the magnitude of the sodium current. Currents elicited at 0 mV were plotted as a function of prepulse potential to allow estimation of the voltage at which 50% of the channels were inactivated (midpoint of inactivation or V1/2). Compounds were tested for their ability to inhibit hNav1.8 sodium channels by activating the channel with a 20 msec voltage step to 0 mV following an 8 second conditioning prepulse to the empirically determined V1/2. Compound effect (% inhibition) was determined by difference in current amplitude before and after application of test compounds. For ease of comparison, “estimated IC50” values were calculated from single point electrophysiology data by the following equation, (tested concentration, uM)×(100-% inhibition/% inhibition). Inhibition values<20% and >80% were excluded from the calculation.
In some cases electrophysiological assays were conducted with PatchXpress 7000 hardware and associated software (Molecular Devices Corp). All assay buffers and solutions were identical to those used in conventional whole-cell voltage clamp experiments described above. hNav1.8 cells were grown as above to 50%-80% confluency and harvested by trypsinization. Trypsinized cells were washed and resuspended in extracellular buffer at a concentration of 1×10^6 cells/ml. The onboard liquid handling facility of the PatchXpress was used for dispensing cells and application of test compounds. Determination of the voltage midpoint of inactivation was as described for conventional whole-cell recordings. Cells were then voltage-clamped to the empirically determined V1/2 and current was activated by a 20 msec voltage step to 0 mV.
Estimated IC50 values for the compounds of formula (I) exemplified above are as follows. […]

T1 sequence (Q9Y5Y9 whole entry): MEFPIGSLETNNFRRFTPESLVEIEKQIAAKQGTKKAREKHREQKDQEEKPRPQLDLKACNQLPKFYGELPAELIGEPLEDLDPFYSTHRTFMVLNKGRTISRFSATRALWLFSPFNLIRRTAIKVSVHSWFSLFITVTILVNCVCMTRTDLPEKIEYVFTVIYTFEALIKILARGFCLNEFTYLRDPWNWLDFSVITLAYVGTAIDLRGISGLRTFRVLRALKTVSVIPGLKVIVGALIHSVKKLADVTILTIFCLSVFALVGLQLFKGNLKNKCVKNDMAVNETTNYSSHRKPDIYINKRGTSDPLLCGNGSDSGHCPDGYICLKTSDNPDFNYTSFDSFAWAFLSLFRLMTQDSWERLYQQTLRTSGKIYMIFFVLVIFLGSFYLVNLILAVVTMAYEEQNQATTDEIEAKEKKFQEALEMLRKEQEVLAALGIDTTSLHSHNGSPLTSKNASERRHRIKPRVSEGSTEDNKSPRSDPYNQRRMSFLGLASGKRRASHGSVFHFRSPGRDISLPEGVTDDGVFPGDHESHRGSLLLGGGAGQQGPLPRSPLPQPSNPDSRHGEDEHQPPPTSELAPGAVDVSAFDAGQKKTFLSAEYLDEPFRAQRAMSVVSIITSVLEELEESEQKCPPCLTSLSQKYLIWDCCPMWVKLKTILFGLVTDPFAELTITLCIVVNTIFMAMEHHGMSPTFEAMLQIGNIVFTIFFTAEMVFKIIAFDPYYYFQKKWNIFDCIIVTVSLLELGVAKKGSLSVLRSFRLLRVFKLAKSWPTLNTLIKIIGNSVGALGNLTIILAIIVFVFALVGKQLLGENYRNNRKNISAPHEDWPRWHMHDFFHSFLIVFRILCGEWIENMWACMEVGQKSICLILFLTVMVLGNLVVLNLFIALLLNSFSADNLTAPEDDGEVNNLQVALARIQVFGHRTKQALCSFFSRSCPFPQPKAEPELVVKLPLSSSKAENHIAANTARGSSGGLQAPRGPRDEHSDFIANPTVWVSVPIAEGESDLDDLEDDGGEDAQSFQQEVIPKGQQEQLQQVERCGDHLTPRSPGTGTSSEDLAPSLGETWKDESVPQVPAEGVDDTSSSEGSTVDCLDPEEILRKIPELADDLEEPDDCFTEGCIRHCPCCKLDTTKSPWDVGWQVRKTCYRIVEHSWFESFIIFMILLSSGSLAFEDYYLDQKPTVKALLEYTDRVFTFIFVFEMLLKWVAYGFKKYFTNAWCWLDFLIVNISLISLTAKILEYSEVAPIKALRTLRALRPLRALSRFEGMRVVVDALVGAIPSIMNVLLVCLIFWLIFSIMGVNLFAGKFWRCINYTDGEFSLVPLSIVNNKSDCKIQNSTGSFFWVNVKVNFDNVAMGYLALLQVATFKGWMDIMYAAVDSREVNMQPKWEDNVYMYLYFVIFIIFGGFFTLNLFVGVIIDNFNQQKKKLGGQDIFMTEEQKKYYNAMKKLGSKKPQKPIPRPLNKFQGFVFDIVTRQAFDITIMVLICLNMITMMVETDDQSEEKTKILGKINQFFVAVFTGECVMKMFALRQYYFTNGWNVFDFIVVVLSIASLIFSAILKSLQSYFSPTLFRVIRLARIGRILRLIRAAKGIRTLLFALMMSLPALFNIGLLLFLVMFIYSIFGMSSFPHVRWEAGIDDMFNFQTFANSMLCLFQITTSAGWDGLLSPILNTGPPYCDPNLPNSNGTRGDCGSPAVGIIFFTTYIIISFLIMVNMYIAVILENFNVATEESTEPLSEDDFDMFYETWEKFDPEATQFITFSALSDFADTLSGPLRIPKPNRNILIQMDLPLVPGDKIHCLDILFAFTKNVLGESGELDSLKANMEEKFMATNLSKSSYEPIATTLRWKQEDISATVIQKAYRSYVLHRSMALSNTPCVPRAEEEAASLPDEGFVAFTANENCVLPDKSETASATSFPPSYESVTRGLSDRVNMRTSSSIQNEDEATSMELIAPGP

Row | IC50 [nM] | SMILES
1 | 227 | N#Cc1ccc(-c2ccc3[nH]c([C@H](N)c4ccccc4)nc3c2)cc1 [Example 36, 4-{2-[(R)-Amino(phenyl)methyl]-1H-benzimidazol-5-yl}benzonitrile]
2 | 650 | CCC(C)(C)c1ccc2[nH]c([C@H]3NCC[C@@H]3O)nc2c1 [Example 37, (2R,3S)-2-[5-(2-Methylbutan-2-yl)-1H-benzimidazol-2-yl]pyrrolidin-3-ol]
3 | 41.9 | CCC(C)(C)c1ccc2[nH]c([C@@H](N)[C@@H](C)OC)nc2c1 [Example 38, (1R,2R)-2-Methoxy-1-[5-(2-methylbutan-2-yl)-1H-benzimidazol-2-yl]propan-1-amine]
4 | 54.2 | CCC(C)(C)c1ccc2[nH]c([C@@H](N)[C@@H](C)O)nc2c1 [Example 39, (1R,2R)-1-Amino-1-[5-(2-methylbutan-2-yl)-1H-benzimidazol-2-yl]propan-2-ol]
5 | 77.1 | C[C@@H](O)[C@H](N)c1nc2cc(-c3ccc(C#N)cc3)ccc2[nH]1 [Example 40, 4-{2-[(1R,2R)-1-Amino-2-hydroxypropyl]-1H-benzimidazol-5-yl}benzonitrile]
6 | 648 | CCC(C)(C)c1ccc2[nH]c([C@@H](C)N)nc2c1 [Example 41, (1R)-1-[5-(2-Methylbutan-2-yl)-1H-benzimidazol-2-yl]ethanamine]
7 | 122 | N#Cc1ccc(-c2ccc3[nH]c([C@@H](N)c4ccccc4)nc3c2)cc1 [Example 42, 4-{2-[(S)-Amino(phenyl)methyl]-1H-benzimidazol-5-yl}benzonitrile]
8 | 842 | N#Cc1ccc(-c2ccc3[nH]c([C@H]4C[C@@H](O)CN4)nc3c2)cc1 [Example 43, 4-{2-[(2R,4R)-4-Hydroxypyrrolidin-2-yl]-1H-benzimidazol-5-yl}benzonitrile]
9 | 890 | N#Cc1ccc(-c2ccc3[nH]c([C@H](N)CC(N)=O)nc3c2)cc1 [Example 44, (3R)-3-Amino-3-[5-(4-cyanophenyl)-1H-benzimidazol-2-yl]propanamide]
10 | 203 | N#Cc1ccc(-c2ccc3[nH]c([C@@H](N)CC(N)=O)nc3c2)cc1 [Example 45, (3S)-3-Amino-3-[5-(4-cyanophenyl)-1H-benzimidazol-2-yl]propanamide]
11 | 781 | CC(C)C[C@@H](N)c1nc2cc(-c3ccc(C#N)cc3)ccc2[nH]1 [Example 47, 4-{2-[(1R)-1-Amino-3-methylbutyl]-1H-benzimidazol-5-yl}benzonitrile]
12 | 469 | CC(C)(C)[C@@H](N)c1nc2cc(-c3ccc(C#N)cc3)ccc2[nH]1 [Example 48, 4-{2-[(1R)-1-Amino-2,2-dimethylpropyl]-1H-benzimidazol-5-yl}benzonitrile]
13 | 1050 | N#Cc1ccc(-c2ccc3[nH]c([C@@H]4C[C@H](O)CN4)nc3c2)cc1 [Example 49, 4-{2-[(2S,4S)-4-Hydroxypyrrolidin-2-yl]-1H-benzimidazol-5-yl}benzonitrile]
14 | 1840 | N#Cc1ccc(-c2ccc3[nH]c([C@H]4NCC[C@@H]4O)nc3c2)cc1 [Example 50, 4-{2-[(2R,3S)-3-Hydroxypyrrolidin-2-yl]-1H-benzimidazol-5-yl}benzonitrile]
15 | 3130 | N#Cc1ccc(-c2ccc3[nH]c([C@@H]4CCCCN4)nc3c2)cc1 [Example 51, 4-{2-[(2S)-Piperidin-2-yl]-1H-benzimidazol-5-yl}benzonitrile]
16 | 703 | CC(C)[C@H](N)c1nc2cc(-c3ccc(C#N)cc3)ccc2[nH]1 [Example 52, 4-{2-[(1S)-1-amino-2-methylpropyl]-1H-benzimidazol-5-yl}benzonitrile]
17 | 562 | CC[C@@H](N)c1nc2cc(-c3ccc(C#N)cc3)ccc2[nH]1 [Example 53, 4-{2-[(1R)-1-aminopropyl]-1H-benzimidazol-5-yl}benzonitrile]

Row | IC50 [nM] | SMILES
18 | 662 | C[C@@H](N)c1nc2cc(-c3ccc(C#N)cc3)ccc2[nH]1 [Example 54, 4-{2-[(1R)-1-aminoethyl]-1H-benzimidazol-5-yl}benzonitrile]
19 | 77.4 | CC1(C)[C@@H]2[C@@H](c3nc4cc(-c5ccc(C#N)cc5)ccc4[nH]3)NC[C@@H]21 [Example 55, 4-{2-[(1R,2S,5S)-6,6-dimethyl-3-azabicyclo[3.1.0]hex-2-yl]-1H-benzimidazol-5-yl}benzonitrile]
20 | 97.5 | CC(C)[C@@H](N)c1nc2cc(-c3ccc(C#N)cc3)ccc2[nH]1 [Example 56, 4-{2-[(1R)-1-amino-2-methylpropyl]-1H-benzimidazol-5-yl}benzonitrile]
21 | 2530 | CC(C)(C)[C@H](N)c1nc2cc(-c3ccc(C#N)cc3)ccc2[nH]1 [Example 57, 4-{2-[(1S)-1-amino-2,2-dimethylpropyl]-1H-benzimidazol-5-yl}benzonitrile]
22 | 537 | CCCC[C@@H](N)c1nc2cc(-c3ccc(C#N)cc3)ccc2[nH]1 [Example 58, 4-{2-[(1R)-1-aminopentyl]-1H-benzimidazol-5-yl}benzonitrile]
23 | 105 | N#Cc1ccc(-c2ccc3[nH]c(C4(N)CCCC4)nc3c2)cc1 [Example 59, 4-[2-(1-aminocyclopentyl)-1H-benzimidazol-5-yl]benzonitrile]
24 | 166 | CCCC[C@H](N)c1nc2cc(-c3ccc(C#N)cc3)ccc2[nH]1 [Example 60, 4-{2-[(1S)-1-aminopentyl]-1H-benzimidazol-5-yl}benzonitrile]
25 | 698 | N#Cc1ccc(-c2ccc3[nH]c([C@@H]4C[C@H](F)CN4)nc3c2)cc1 [Example 61, 4-{2-[(2S,4S)-4-fluoropyrrolidin-2-yl]-1H-benzimidazol-5-yl}benzonitrile]
26 | 1000 | C[C@H](N)c1nc2cc(-c3ccc(C#N)cc3)ccc2[nH]1 [Example 64, 4-{2-[(1S)-1-aminoethyl]-1H-benzimidazol-5-yl}benzonitrile]
27 | 2710 | CCCCc1ccc2[nH]c(C(C)(C)N)nc2c1 [Example 65, 2-(5-Butyl-1H-benzimidazol-2-yl)propan-2-amine]
28 | 1000 | CC(C)(N)c1nc2cc(C3CCCCC3)ccc2[nH]1 [Example 66, 2-(5-Cyclohexyl-1H-benzimidazol-2-yl)propan-2-amine]
29 | 635 | CCC(C)(C)c1ccc2[nH]c(C(C)(C)N)nc2c1 [Example 68, 2-[5-(2-Methylbutan-2-yl)-1H-benzimidazol-2-yl]propan-2-amine]
30 | 3900 | CCCc1ccc2[nH]c(C(C)(C)N)nc2c1 [Example 69, 2-(5-Propyl-1H-benzimidazol-2-yl)propan-2-amine]
31 | 3160 | CC(C)(N)c1nc2cc(-c3cc(F)cc(C#N)c3)ccc2[nH]1 [Example 70, 3-[2-(1-Amino-1-methylethyl)-1H-benzimidazol-5-yl]-5-fluorobenzonitrile]
32 | 3930 | CC(C)(N)c1nc2cc(-c3ccc(Cl)c(C#N)c3)ccc2[nH]1 [Example 71, 5-[2-(1-Amino-1-methylethyl)-1H-benzimidazol-5-yl]-2-chlorobenzonitrile]
33 | 2490 | CC(C)(N)c1nc2cc(-c3cccc(C#N)c3)ccc2[nH]1 [Example 72, 3-[2-(1-Amino-1-methylethyl)-1H-benzimidazol-5-yl]benzonitrile]

Row | SMILES | IC50 [nM]
34 | C[C@H](O)[C@@H](N)c1nc2cc(-c3ccc(C#N)cc3)ccc2[nH]1 [Example 62, 4-{2-[(1S,25)-1-amino-2-hydroxypropyl]-1H-benzimidazol-5-yl}benzonitrile] | 580
